Reference: ChEMBL document CHEMBL3608278 (J Med Chem, 2015)

What was measured:
[1] = target: T1, Potassium voltage-gated channel subfamily A member 3 (Homo sapiens, UniProt P22001); test: cell-based; parameters: species or system Blood
[2] = target: T1, Potassium voltage-gated channel subfamily A member 3; type: cell-based, CHO-K1
[3] = target: T1, Potassium voltage-gated channel subfamily A member 3; parameters: species or system Blood

T1 sequence (P22001 whole entry): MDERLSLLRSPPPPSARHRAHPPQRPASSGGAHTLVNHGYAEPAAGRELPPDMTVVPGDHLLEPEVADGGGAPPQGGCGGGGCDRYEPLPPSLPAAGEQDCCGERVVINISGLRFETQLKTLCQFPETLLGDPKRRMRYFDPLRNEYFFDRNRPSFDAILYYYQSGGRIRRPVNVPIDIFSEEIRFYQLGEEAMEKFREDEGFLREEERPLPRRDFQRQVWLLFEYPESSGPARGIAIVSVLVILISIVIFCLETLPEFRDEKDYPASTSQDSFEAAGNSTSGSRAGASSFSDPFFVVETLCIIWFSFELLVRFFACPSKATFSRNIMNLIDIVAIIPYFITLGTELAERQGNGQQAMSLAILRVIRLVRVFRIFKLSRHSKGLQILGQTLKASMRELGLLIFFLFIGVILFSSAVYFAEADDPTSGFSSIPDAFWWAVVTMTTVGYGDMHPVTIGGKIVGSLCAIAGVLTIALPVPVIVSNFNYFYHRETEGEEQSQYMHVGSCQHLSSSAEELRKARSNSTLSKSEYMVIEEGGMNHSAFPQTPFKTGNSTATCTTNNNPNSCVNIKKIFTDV

Compound	IC50 [1]	IC50 [2]	IC50 [3]
CC[C@H](C)[C@@H]1NC(=O)[C@@H](NC(=O)[C@H](CO)NC(=O)[C@H](C)N)CSSC[C@@H](C(=O)O)NC(=O)[C@H]([C@@H](C)O)NC(=O)CNC(=O)[C@@H]2CSSC[C@@H]3NC(=O)[C@H](CCC(N)=O)NC(=O)[C@H](Cc4ccccc4)NC(=O)[C@H](C)NC(=O)[C@H]([C@@H](C)O)NC(=O)[C@H](CSSC[C@H](NC(=O)[C@H](Cc4ccccc4)NC(=O)[C@H](CO)NC(=O)[C@H](CC(C)C)NC(=O)[C@H](CCCNC(=N)N)NC(=O)[C@H](Cc4ccc(O)cc4)NC(=O)[C@H](CCCCN)NC(=O)[C@H](CCSC)NC(=O)[C@H](CO)NC(=O)[C@H](Cc4cnc[nH]4)NC(=O)[C@H](CCCCN)NC3=O)C(=O)N[C@@H](CCCNC(=N)N)C(=O)N[C@@H](CCCCN)C(=O)N[C@@H]([C@@H](C)O)C(=O)N2)NC(=O)[C@H](CCCNC(=N)N)NC(=O)[C@H](CO)NC(=O)[C@H](CCCCN)NC(=O)[C@@H]2CCCN2C(=O)[C@H]([C@@H](C)CC)NC(=O)[C@H]([C@@H](C)O)NC(=O)[C@H](CC(=O)O)NC1=O	61 pM	166 pM	
CC[C@H](C)[C@@H]1NC(=O)[C@@H](NC(=O)[C@H](CO)NC(=O)[C@@H](N)CCCNC(=N)N)CSSC[C@@H](C(=O)O)NC(=O)[C@H]([C@@H](C)O)NC(=O)CNC(=O)[C@@H]2CSSC[C@@H]3NC(=O)[C@H](CCC(N)=O)NC(=O)[C@H](Cc4ccccc4)NC(=O)[C@H](C)NC(=O)[C@H]([C@@H](C)O)NC(=O)[C@H](CSSC[C@H](NC(=O)[C@H](Cc4ccccc4)NC(=O)[C@H](CO)NC(=O)[C@H](CC(C)C)NC(=O)[C@H](CCCNC(=N)N)NC(=O)[C@H](Cc4ccc(O)cc4)NC(=O)[C@H](CCCCN)NC(=O)[C@H](CCSC)NC(=O)[C@H](CO)NC(=O)[C@H](Cc4cnc[nH]4)NC(=O)[C@H](CCCCN)NC3=O)C(=O)N[C@@H](CCCNC(=N)N)C(=O)N[C@@H](CCCNC(=N)N)C(=O)N[C@@H]([C@@H](C)O)C(=O)N2)NC(=O)[C@H](CCCNC(=N)N)NC(=O)[C@H](CO)NC(=O)[C@H](CCCCN)NC(=O)[C@@H]2CCCN2C(=O)[C@H]([C@@H](C)CC)NC(=O)[C@H]([C@@H](C)O)NC(=O)[C@H](CC(=O)O)NC1=O		38 pM	58 pM
CC[C@H](C)[C@@H]1NC(=O)[C@@H](NC(=O)[C@H](CO)NC(=O)[C@@H](N)CCCNC(=N)N)CSSC[C@@H](C(=O)O)NC(=O)[C@H]([C@@H](C)O)NC(=O)CNC(=O)[C@@H]2CSSC[C@@H]3NC(=O)[C@H](CCN)NC(=O)[C@H](Cc4ccccc4)NC(=O)[C@H](C)NC(=O)[C@H]([C@@H](C)O)NC(=O)[C@H](CSSC[C@H](NC(=O)[C@H](Cc4ccccc4)NC(=O)[C@H](CO)NC(=O)[C@H](CC(C)C)NC(=O)[C@H](CCCNC(=N)N)NC(=O)[C@H](Cc4ccc(O)cc4)NC(=O)[C@H](CCCCN)NC(=O)[C@H](CCSC)NC(=O)[C@H](CO)NC(=O)[C@H](Cc4c[nH]cn4)NC(=O)[C@H](CCCCN)NC3=O)C(=O)N[C@@H](CCCNC(=N)N)C(=O)N[C@@H](CCCCN)C(=O)N[C@@H]([C@@H](C)O)C(=O)N2)NC(=O)[C@H](CCCNC(=N)N)NC(=O)[C@H](CO)NC(=O)[C@H](CCCCN)NC(=O)[C@@H]2CCCN2C(=O)[C@H]([C@@H](C)CC)NC(=O)[C@H]([C@@H](C)O)NC(=O)[C@H](CC(=O)O)NC1=O	86 pM		223 pM
CC[C@H](C)[C@@H]1NC(=O)[C@@H](NC(=O)[C@H](CO)NC(=O)[C@@H](N)CCCNC(=N)N)CSSC[C@@H](C(=O)N[C@@H](C)C(=O)O)NC(=O)[C@H]([C@@H](C)O)NC(=O)CNC(=O)[C@@H]2CSSC[C@@H]3NC(=O)[C@H](CCCCN)NC(=O)[C@H](Cc4ccccc4)NC(=O)[C@H](C)NC(=O)[C@H]([C@@H](C)O)NC(=O)[C@H](CSSC[C@H](NC(=O)[C@H](Cc4ccccc4)NC(=O)[C@H](CO)NC(=O)[C@H](CC(C)C)NC(=O)[C@H](CCCNC(=N)N)NC(=O)[C@H](Cc4ccc(O)cc4)NC(=O)[C@H](CCCCN)NC(=O)[C@H](CCSC)NC(=O)[C@H](CO)NC(=O)[C@H](Cc4cnc[nH]4)NC(=O)[C@H](CCCCN)NC3=O)C(=O)N[C@@H](CCCNC(=N)N)C(=O)N[C@@H](CCCCN)C(=O)N[C@@H]([C@@H](C)O)C(=O)N2)NC(=O)[C@H](CCCNC(=N)N)NC(=O)[C@H](CO)NC(=O)[C@H](CCCCN)NC(=O)[C@@H]2CCCN2C(=O)[C@H]([C@@H](C)CC)NC(=O)[C@H]([C@@H](C)O)NC(=O)[C@H](CC(=O)O)NC1=O	138 pM		266 pM
CCCC[C@@H]1NC(=O)[C@H](CO)NC(=O)[C@H](Cc2c[nH]cn2)NC(=O)[C@H](CCCCN)NC(=O)[C@@H]2CSSC[C@@H]3NC(=O)[C@H]([C@@H](C)O)NC(=O)[C@H](CCCCN)NC(=O)[C@H](CCCNC(=N)N)NC(=O)[C@H](CSSC[C@H](NC(=O)[C@H](CCCNC(=N)N)NC(=O)[C@H](CO)NC(=O)[C@H](CCCCN)NC(=O)[C@@H]4CCCN4C(=O)[C@H]([C@@H](C)CC)NC(=O)[C@H]([C@@H](C)O)NC(=O)[C@H](CC(=O)O)NC(=O)[C@H]([C@@H](C)CC)NC(=O)[C@@H](NC(=O)[C@H](CO)NC(=O)[C@@H](N)CCCNC(=N)N)CSSC[C@@H](C(N)=O)NC(=O)[C@H]([C@@H](C)O)NC(=O)CNC3=O)C(=O)N[C@@H]([C@@H](C)O)C(=O)N[C@@H](C)C(=O)N[C@@H](Cc3ccccc3)C(=O)N[C@@H](CCCCN)C(=O)N2)NC(=O)[C@H](Cc2ccccc2)NC(=O)[C@H](CO)NC(=O)[C@H](CC(C)C)NC(=O)[C@H](CCCNC(=N)N)NC(=O)[C@H](Cc2ccc(O)cc2)NC(=O)[C@H](CCCCN)NC1=O	823 pM		1100 pM
CC[C@H](C)[C@@H]1NC(=O)[C@@H](NC(=O)[C@H](CO)NC(=O)[C@@H](N)CCCNC(=N)N)CSSC[C@@H](C(=O)O)NC(=O)[C@H]([C@@H](C)O)NC(=O)CNC(=O)[C@@H]2CSSC[C@@H]3NC(=O)[C@H](CCC(N)=O)NC(=O)[C@H](Cc4ccccc4)NC(=O)[C@H](C)NC(=O)[C@H]([C@@H](C)O)NC(=O)[C@H](CSSC[C@H](NC(=O)[C@H](Cc4ccccc4)NC(=O)[C@H](CO)NC(=O)[C@H](CC(C)C)NC(=O)[C@H](CCCNC(=N)N)NC(=O)[C@H](Cc4ccc(O)cc4)NC(=O)[C@H](CCCCN)NC(=O)[C@H](CCSC)NC(=O)[C@H](CO)NC(=O)[C@H](Cc4cnc[nH]4)NC(=O)[C@H](CCCCN)NC3=O)C(=O)N[C@@H](CCCNC(=N)N)C(=O)N[C@@H](CCCCN)C(=O)N[C@@H]([C@@H](C)O)C(=O)N2)NC(=O)[C@H](CCCNC(=N)N)NC(=O)[C@H](Cc2cccc3ccccc23)NC(=O)[C@H](CCCCN)NC(=O)[C@@H]2CCCN2C(=O)[C@H]([C@@H](C)CC)NC(=O)[C@H]([C@@H](C)O)NC(=O)[C@H](CC(=O)O)NC1=O		216 pM	255 pM
